According to patent publication US11597933B2, “Combination therapy of lymphoma” (The Trustees of Columbia University in the City of New York, priority 2017, dated 2023):
Like-named read-outs stand apart in the source and are kept apart here.

Tests used:
Pfeiffer = experiment: Cell viability assay, Pfeiffer; assay type: cell-based; conditions: for IC50: Pfeiffer
Source text: (§1) OCI-LY1, SU-DHL-2, SU-DHL-6, Pfeiffer, Farage, Toledo, Riva, HBL-1, Jeko-1, Z-138, H9, and HH were obtained from ATCC. OCI-LY7, OCI-LY10, SU-DHL-10 and OCI-LY3 were obtained from DSMZ. PF382, and P12 were a gift from the laboratory of Adolfo Fernando. TLOM-1 and MT-1 were obtained from Kyoto University; and MT-2 was obtained from Memorial Sloan Kettering Cancer Center. All cell lines were authenticated and screened for mycoplasma using the ATCC/Promega STR Authentication Testing Kit and Lonza MycoAlert.
(§2) Synergy was assessed by excess over bliss (EOB). […] Criteria for analyzing interactions between biologically active agents. Advances in cancer research 1981; 35:269-335.
(§3) To understand the effects of EZH2 inhibition and HDAC inhibition in cell lines with or without EZH2 dysfunction and HAT mutations, a panel of 21 lymphoma cell lines were exposed to GSK126, an EZH2 inhibitor, and romidepsin, a pan-HDAC inhibitor, as single agents. Both B-cell and TCL were selected in order to establish a range of drug sensitivity and mutational status. EZH2 status and HAT mutational status were confirmed.

SU-DHL-10 = experiment: Cell viability assay, SU-DHL-10; assay type: cell-based
Source text: as §1, §2, §3

TLOM-1 = experiment: Cell viability assay, TLOM-1; assay type: cell-based
Source text: as §1, §2, §3

SU-DHL-6 = experiment: Cell viability assay, SU-DHL-6; assay type: cell-based
Source text: as §1, §2, §3

OCI-LY1 = experiment: Cell viability assay, OCI-LY1; assay type: cell-based
Source text: as §1, §2, §3

HBL-1 = experiment: Cell viability assay, HBL-1; assay type: cell-based
Source text: as §1, §2, §3

OCI-LY7 = experiment: Cell viability assay, OCI-LY7; assay type: cell-based
Source text: as §1, §2, §3

MT-1 = experiment: Cell viability assay, MT-1; assay type: cell-based
Source text: as §1, §2, §3

HH = experiment: Cell viability assay, HH; assay type: cell-based
Source text: as §1, §2, §3

SU-DHL-2 = experiment: Cell viability assay, SU-DHL-2; assay type: cell-based
Source text: as §1, §2, §3

PF-382 = experiment: Cell viability assay, PF-382; assay type: cell-based
Source text: as §1, §2, §3

Toledo = experiment: Cell viability assay, Toledo; assay type: cell-based
Source text: as §1, §2, §3

P12 = experiment: Cell viability assay, P12; assay type: cell-based
Source text: as §1, §2, §3

H9 = experiment: Cell viability assay, H9; assay type: cell-based
Source text: as §1, §2, §3

OCI-LY10 = experiment: Cell viability assay, OCI-LY10; assay type: cell-based
Source text: as §1, §2, §3

Z-138 = experiment: Cell viability assay, Z-138; assay type: cell-based
Source text: as §1, §2, §3

OCI-LY3 = experiment: Cell viability assay, OCI-LY3; assay type: cell-based
Source text: as §1, §2, §3

Riva = experiment: Cell viability assay, Riva; assay type: cell-based
Source text: as §1, §2, §3

MT-2 = experiment: Cell viability assay, MT-2; assay type: cell-based
Source text: as §1, §2, §3

Jeko-1 = experiment: Cell viability assay, Jeko-1; assay type: cell-based
Source text: as §1, §2, §3

Farage = experiment: Cell viability assay, Farage; assay type: cell-based
Source text: as §1, §2, §3

HEK 293T cells = experiment: H3K27 acetylation and methylation in HEK 293T cells; assay type: cell-based; conditions: single agent exposure in HEK 293T cells
[1] = mouse, in vivo
Method: (§4) F. Serum romidepsin pharmacokinetic parameters after single injection of GSK and romidepsin over 24 hours.

RbAp 46/48 (RBBP4) = experiment: Acetyl-lysine immunoprecipitation and mass spectrometry; assay type: cell-based; conditions: SU-DHL-10 cells, acetyl-lysine antibody IP, compared to control, FDR<1.0%
Method: Immunoprecipitation was performed using Thermo Scientific™ Pierce™ MS-Compatible Magnetic IP Kit (#84840). Protein was incubated with EZH2 or acetylated-lysine antibody. Antibody bound proteins were eluted and run into SDS PAGE. The excised gel lane pieces were reduced, alkylated, and digested in Trypsin Gold (Promega) digestion buffer (Thermo Fischer Scientific). Condensed evaporated water was collected by brief centrifugation using microcentrifuge (Eppendorf). The gel pieces and digestion reaction were mixed with 2.5% Trifluoretic Acids (TFA, Thermo Fischer Scientific). Peptides were extracted with 70% acetonitrile (ACN/5% TFA mixture) (Thermo Fischer Scientific). The extracts were pooled and dried to completion in SpeedVac.
The concentrated peptide mix was reconstituted in a solution of 2% ACN, 2% formic acid (FA) for MS analysis. Peptides were eluted from the column using a Dionex Ultimate 3000 Nano LC system. Using Thermo Fusion Tribrid mass spectrometer (Thermo Scientific), eluted peptides were electro sprayed. Mass spectrometer-scanning functions and HPLC gradients were controlled by the Xcalibur data system (Thermo Fischer).
Tandem mass spectra from raw files were searched against uniprot_human_170129.fasta data base using the Proteome Discoverer 2.1 (Thermo Fischer). The […] protein database was downloaded as FASTA-formatted sequences from Uniprot protein database (January 2017). […]

in vivo = conditions: mouse, serum, ip
Method: as §4

[2] = Pharmacokinetic analysis of serum and tumor samples; conditions: single exposure to GSK126 and romidepsin, over 24 hours
Method: as §4

[3] = system: R/R DLBCL or follicular lymphoma (FL); conditions: 800 mg BID, cited from earlier work
[4] = GC-DLBCL, EZH2 Wildtype, 144 hours, read-out: IC50 GSK126
[5] = Homo sapiens, 72 h, read-out: IC50 Romidespin
[6] = 72 h, read-out: IC50 Romidespin

With `CCN(c1cc(C#CCN2CCOCC2)cc(C(=O)NCc2c(C)cc(C)[nH]c2=O)c1C)[C@H]1CC[C@H](N(C)CCOC)CC1` [EPZ011989] the “sensitivity, cell viability curve” value (Pfeiffer; Pfeiffer (GC-DLBCL), single agent) was “potent sensitivity”.
Work on `CC[C@H](C)n1cc(C)c2c(C(=O)NCc3c(C)cc(C)[nH]c3=O)cc(-c3ccc(N4CCNCC4)nc3)cc21` [GSK126] yielded an IC50 (Pfeiffer; GC-DLBCL, EZH2 A677G, 144 hours, read-out: IC50 GSK126) of 100 nM, an IC50 (SU-DHL-10; SU-DHL-10, GC-DLBCL, EZH2 Y641F, Y646S, 144 hours, read-out: IC50 GSK126) of 700 nM and an IC50 (TLOM-1; TLOM-1, ATLL, EZH2 Overexpression, 144 hours, read-out: IC50 GSK126) of 1500 nM. It also gave an IC50 (SU-DHL-6; SU-DHL-6, GC-DLBCL, EZH2 Y602N, Y646N, 144 hours, read-out: IC50 GSK126) of 3100 nM, an IC50 (OCI-LY1; OCI-LY1, GC-DLBCL, EZH2 Y602N, Y646N, 144 hours, read-out: IC50 GSK126) of 3700 nM and an IC50 (HBL-1; HBL-1, ABC-DLBCL, EZH2 Wildtype, 144 hours, read-out: IC50 GSK126) of 4200 nM. For the same molecule, the IC50 (OCI-LY7; OCI-LY7, GC-DLBCL, EZH2 Wildtype, 144 hours, read-out: IC50 GSK126) was 4300 nM, the IC50 (MT-1; MT-1, ATLL, EZH2 Overexpression, 144 hours, read-out: IC50 GSK126) was 4400 nM and the IC50 (HH; CTCL, EZH2 Wildtype, 144 hours, read-out: IC50 GSK126) was 4400 nM. For the same molecule, the IC50 (SU-DHL-2; SU-DHL-2, ABC-DLBCL, EZH2 Wildtype, 144 hours, read-out: IC50 GSK126) was 4400 nM, the IC50 (PF-382; PF-382, T-ALL, EZH2 Wildtype, 144 hours, read-out: IC50 GSK126) was 5600 nM and the IC50 (Toledo; [4]) was 6000 nM. For the same molecule, the IC50 (P12; P12, T-ALL, EZH2 Wildtype, 144 hours, read-out: IC50 GSK126) was 6000 nM, the IC50 (H9; H9, CTCL, EZH2 Wildtype, 144 hours, read-out: IC50 GSK126) was 6100 nM and the IC50 (OCI-LY10; OCI-LY10, ABC-DLBCL, EZH2 Wildtype, 144 hours, read-out: IC50 GSK126) was 6400 nM. For the same molecule, the IC50 (Z-138; Z-138, Mantle Cell, EZH2 Overexpression, 144 hours, read-out: IC50 GSK126) was 7100 nM, the IC50 (OCI-LY3; OCI-LY3, ABC-DLBCL, EZH2 Wildtype, 144 hours, read-out: IC50 GSK126) was 7200 nM and the IC50 (Riva; Riva, ABC-DLBCL, EZH2 Wildtype, 144 hours, read-out: IC50 GSK126) was 7500 nM. The IC50 (MT-2; MT-2, ATLL, EZH2 Overexpression, 144 hours, read-out: IC50 GSK126) was 9000 nM, the IC50 (Jeko-1; Jeko-1, Mantle Cell, EZH2 Overexpression, 144 hours, read-out: IC50 GSK126) was 10000 nM and the IC50 (Farage; [4]) was 10000 nM. The “status of acetylation or methylation of H3K27” value (HEK 293T cells) was “did not significantly change”, the Cmax [1] was 3.15 µM and the “serum AUC0-last” value [1] was 2828.57 ng·h/mL. The Cmax ([1]; ip) was 1657.5 ± 413.6 ng/mL.
With `C/C=C1\NC(=O)[C@H]2CSSCC/C=C/[C@H](CC(=O)N[C@H](C(C)C)C(=O)N2)OC(=O)[C@H](C(C)C)NC1=O` [romidepsin] the IC50 (Pfeiffer; [5]) was 6 nM, the IC50 (SU-DHL-10; Homo sapiens, SU-DHL10, 72 h, read-out: IC50 Romidespin, SU-DHL-10, GC-DLBCL, EP300 mis mut/CREBBP trunc mut, 72-hour exposure) was 2.59 nM and the IC50 (SU-DHL-10; read-out: IC50 Romidespin, SU-DHL-10, GC-DLBCL, EP300 mis mut/CREBBP trunc mut, 72-hour exposure) was 2.1 nM. For the same molecule, the IC50 (TLOM-1; [6]) was 4.3 nM, the IC50 (SU-DHL-6; Homo sapiens, SU-DHL-6, 72 h, read-out: IC50 Romidespin) was 2 nM and the IC50 (OCI-LY1; Homo sapiens, OCI-Ly1, 72 h, read-out: IC50 Romidespin) was 2.5 nM. The IC50 (HBL-1; HBL1, 72 h, read-out: IC50 Romidespin) was 1 nM, the IC50 (OCI-LY7; Homo sapiens, OCI-Ly7, 72 h, read-out: IC50 Romidespin) was 1.5 nM and the IC50 (MT-1; [6]) was 2.8 nM. The IC50 (HH; [5]) was 1.1 nM, the IC50 (SU-DHL-2; Homo sapiens, SU-DHL-2, 72 h, read-out: IC50 Romidespin) was 1.3 nM and the IC50 (PF-382; Homo sapiens, PF-382, 72 h, read-out: IC50 Romidespin) was 3.5 nM. The IC50 (Toledo; [5]) was 1 nM, the IC50 (P12; P12, 72 h, read-out: IC50 Romidespin) was 4.3 nM and the IC50 (H9; Homo sapiens, H9, 72 h, read-out: IC50 Romidespin) was 1.3 nM. The IC50 (OCI-LY10; Homo sapiens, OCI-Ly10, 72 h, read-out: IC50 Romidespin) was 1 nM, the IC50 (Z-138; Homo sapiens, Z-138, 72 h, read-out: IC50 Romidespin) was 1.1 nM and the IC50 (OCI-LY3; Homo sapiens, OCI-Ly3, 72 h, read-out: IC50 Romidespin) was 1.7 nM. It also gave an IC50 (Riva; [6]) of 1.5 nM, an IC50 (MT-2; Homo sapiens, MT2, 72 h, read-out: IC50 Romidespin) of 2.7 nM and an IC50 (Jeko-1; Homo sapiens, JeKo-1, 72 h, read-out: IC50 Romidespin) of 1.1 nM. The IC50 (Farage; [6]) was 1.7 nM, the “increase of RbAp 46/48 (RBBP4) estimated by spectral counts” value (RbAp 46/48 (RBBP4)) was 2 fold and the Cmax (in vivo) was 25.1 ng/mL. For the same molecule, the intratumor concentration [2] was “below the level of detection”.
In the case of `CCN(c1cc(-c2ccc(CN3CCOCC3)cc2)cc(C(=O)NCc2c(C)cc(C)[nH]c2=O)c1C)C1CCOCC1` [tazemetostat], the tolerability ([3]; preliminary results) is listed as “well tolerated”, the “treatment related emergent adverse events: anemia” value [3] is listed as 10% and the “treatment related emergent adverse events: nausea” value [3] is listed as 14%. For the same molecule, the “treatment related emergent adverse events: thrombocytopenia” value [3] was 13%.
